Assay: Unspecified test of effectiveness of AII fragments

Substance	effectiveness
His-Pro-Phe [AII(6-8)]	not to be effective
Tyr-Ile-His-Pro-Phe (YIHPF; printed: Tyr-Ile-His-Pro-Phe) [AII(4-8)]	not to be effective
